Experimental data reported in ChEMBL document CHEMBL5291721, “A preclinical secondary pharmacology resource illuminates target-adverse drug reaction associations of marketed drugs” (Nat Commun, 2023).

Experiments:
[1] = molecular target: T1, Alpha-2C adrenergic receptor (Homo sapiens, UniProt P18825); assay type: functional
T1 sequence (P18825 whole entry): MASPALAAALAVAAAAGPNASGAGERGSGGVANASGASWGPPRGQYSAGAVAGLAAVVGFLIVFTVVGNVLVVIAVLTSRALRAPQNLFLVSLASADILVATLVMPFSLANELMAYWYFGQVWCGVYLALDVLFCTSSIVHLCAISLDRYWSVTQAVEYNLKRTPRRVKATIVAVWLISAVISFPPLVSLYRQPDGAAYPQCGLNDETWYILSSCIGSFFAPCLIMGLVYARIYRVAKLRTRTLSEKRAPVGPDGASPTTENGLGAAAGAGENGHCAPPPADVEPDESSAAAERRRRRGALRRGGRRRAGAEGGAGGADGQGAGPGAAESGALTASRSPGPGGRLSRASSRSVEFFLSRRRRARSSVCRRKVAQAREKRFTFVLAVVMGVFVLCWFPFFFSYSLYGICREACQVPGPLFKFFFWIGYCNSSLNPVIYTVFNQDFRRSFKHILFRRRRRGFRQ

B2 bradykinin receptor = molecular target: T2, B2 bradykinin receptor (Homo sapiens, UniProt P30411)
T2 sequence (P30411 whole entry): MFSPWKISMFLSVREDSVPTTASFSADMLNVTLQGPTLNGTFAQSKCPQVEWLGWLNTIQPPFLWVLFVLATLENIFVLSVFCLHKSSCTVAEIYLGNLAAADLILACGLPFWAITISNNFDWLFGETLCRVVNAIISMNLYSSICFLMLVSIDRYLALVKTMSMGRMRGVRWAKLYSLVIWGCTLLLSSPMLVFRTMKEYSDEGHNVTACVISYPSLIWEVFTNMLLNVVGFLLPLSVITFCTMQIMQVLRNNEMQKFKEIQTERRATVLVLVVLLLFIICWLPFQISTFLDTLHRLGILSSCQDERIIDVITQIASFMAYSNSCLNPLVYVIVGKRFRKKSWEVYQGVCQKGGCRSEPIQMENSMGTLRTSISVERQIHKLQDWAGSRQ

[2] = molecular target: T3, Cholecystokinin receptor type A (Homo sapiens, UniProt P32238)
T3 sequence (P32238 whole entry): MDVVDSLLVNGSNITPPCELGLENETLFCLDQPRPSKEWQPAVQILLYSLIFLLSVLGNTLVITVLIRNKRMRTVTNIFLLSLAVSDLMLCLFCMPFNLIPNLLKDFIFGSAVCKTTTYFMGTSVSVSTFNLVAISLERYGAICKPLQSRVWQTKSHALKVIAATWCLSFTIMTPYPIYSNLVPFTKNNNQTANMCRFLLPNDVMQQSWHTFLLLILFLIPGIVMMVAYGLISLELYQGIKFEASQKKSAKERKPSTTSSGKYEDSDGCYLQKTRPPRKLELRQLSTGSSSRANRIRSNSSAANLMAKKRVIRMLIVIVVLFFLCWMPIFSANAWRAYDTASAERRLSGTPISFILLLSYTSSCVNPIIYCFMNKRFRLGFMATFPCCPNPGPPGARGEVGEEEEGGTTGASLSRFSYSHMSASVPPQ

D(1A) dopamine receptor = D(1A) dopamine receptor (Homo sapiens, UniProt P21728); assay type: functional, cell-based
Sequence of D(1A) dopamine receptor (P21728 whole entry): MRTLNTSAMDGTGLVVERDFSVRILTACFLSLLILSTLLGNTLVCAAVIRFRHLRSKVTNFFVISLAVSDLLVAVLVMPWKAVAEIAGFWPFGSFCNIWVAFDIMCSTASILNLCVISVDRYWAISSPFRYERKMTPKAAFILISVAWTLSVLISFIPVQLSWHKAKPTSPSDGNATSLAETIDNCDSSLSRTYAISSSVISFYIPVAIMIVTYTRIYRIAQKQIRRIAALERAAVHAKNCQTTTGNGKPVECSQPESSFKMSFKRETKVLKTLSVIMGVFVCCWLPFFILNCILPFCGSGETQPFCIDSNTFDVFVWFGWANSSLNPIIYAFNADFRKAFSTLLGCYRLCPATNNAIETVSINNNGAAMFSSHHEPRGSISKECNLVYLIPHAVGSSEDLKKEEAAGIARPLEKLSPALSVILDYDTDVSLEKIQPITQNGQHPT

[3] = molecular target: 5-hydroxytryptamine receptor 2B (Homo sapiens, UniProt P41595); assay type: functional, cell-based
Sequence of 5-hydroxytryptamine receptor 2B (P41595 whole entry): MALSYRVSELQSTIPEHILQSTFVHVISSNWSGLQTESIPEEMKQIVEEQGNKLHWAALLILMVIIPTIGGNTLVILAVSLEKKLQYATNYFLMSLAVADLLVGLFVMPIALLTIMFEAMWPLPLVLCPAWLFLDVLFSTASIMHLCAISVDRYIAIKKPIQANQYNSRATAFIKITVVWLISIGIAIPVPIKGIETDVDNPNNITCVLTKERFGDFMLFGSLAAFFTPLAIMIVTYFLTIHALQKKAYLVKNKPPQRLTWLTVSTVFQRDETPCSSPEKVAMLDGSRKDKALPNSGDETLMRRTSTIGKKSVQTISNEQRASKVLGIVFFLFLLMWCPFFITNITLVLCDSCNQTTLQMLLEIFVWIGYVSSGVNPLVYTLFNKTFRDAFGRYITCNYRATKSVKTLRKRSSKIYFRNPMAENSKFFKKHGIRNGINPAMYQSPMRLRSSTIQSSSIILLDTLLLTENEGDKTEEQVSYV

[4] = molecular target: Voltage-gated inwardly rectifying potassium channel KCNH2 (Homo sapiens, UniProt Q12809); assay type: functional; conditions: read-out: AC50
Sequence of Voltage-gated inwardly rectifying potassium channel KCNH2 (Q12809 whole entry): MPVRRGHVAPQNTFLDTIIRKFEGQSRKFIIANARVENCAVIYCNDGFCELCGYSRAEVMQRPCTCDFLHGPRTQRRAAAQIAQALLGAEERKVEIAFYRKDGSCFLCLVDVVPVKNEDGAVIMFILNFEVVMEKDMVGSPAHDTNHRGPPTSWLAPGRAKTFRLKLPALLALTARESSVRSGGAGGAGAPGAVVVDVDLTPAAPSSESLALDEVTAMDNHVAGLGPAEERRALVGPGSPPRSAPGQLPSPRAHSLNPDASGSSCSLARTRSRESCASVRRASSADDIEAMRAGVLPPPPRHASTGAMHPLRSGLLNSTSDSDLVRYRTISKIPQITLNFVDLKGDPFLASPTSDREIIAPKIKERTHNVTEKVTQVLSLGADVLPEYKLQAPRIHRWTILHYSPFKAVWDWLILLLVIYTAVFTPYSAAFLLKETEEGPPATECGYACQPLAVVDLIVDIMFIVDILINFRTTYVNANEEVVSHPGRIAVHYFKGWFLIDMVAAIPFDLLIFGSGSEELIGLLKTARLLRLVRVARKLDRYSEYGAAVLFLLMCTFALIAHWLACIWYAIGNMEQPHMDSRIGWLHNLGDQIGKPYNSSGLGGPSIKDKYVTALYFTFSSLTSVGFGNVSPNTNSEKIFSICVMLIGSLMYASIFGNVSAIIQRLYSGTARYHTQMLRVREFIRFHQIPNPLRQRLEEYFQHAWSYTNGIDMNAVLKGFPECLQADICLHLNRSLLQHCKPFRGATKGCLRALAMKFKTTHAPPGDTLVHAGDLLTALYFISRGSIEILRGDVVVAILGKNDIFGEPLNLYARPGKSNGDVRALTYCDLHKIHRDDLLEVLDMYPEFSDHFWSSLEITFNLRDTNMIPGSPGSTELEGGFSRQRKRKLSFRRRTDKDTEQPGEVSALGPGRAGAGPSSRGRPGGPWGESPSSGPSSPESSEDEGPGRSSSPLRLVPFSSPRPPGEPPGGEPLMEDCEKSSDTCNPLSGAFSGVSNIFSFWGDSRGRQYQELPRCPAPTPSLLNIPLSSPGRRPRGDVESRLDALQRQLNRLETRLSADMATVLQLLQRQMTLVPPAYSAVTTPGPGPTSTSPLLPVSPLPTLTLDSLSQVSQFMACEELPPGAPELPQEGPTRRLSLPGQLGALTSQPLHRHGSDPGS

[5] = molecular target: T4, Equilibrative nucleoside transporter 1 (Homo sapiens, UniProt Q99808)
T4 sequence (Q99808 whole entry): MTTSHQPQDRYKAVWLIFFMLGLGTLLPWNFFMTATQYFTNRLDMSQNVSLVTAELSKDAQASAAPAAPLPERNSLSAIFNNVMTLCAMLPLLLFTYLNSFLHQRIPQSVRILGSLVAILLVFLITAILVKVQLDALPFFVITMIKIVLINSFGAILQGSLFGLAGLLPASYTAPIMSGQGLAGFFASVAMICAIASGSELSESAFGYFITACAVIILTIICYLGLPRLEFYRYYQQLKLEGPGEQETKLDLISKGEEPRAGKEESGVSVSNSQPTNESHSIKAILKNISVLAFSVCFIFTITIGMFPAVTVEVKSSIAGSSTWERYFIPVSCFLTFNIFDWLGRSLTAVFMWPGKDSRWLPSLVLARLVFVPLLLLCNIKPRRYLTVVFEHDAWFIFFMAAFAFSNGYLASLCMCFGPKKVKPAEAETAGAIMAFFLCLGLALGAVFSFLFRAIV

[6] = molecular target: T5, Alpha-2A adrenergic receptor (Homo sapiens, UniProt P08913); assay type: functional, cell-based
T5 sequence (P08913 whole entry): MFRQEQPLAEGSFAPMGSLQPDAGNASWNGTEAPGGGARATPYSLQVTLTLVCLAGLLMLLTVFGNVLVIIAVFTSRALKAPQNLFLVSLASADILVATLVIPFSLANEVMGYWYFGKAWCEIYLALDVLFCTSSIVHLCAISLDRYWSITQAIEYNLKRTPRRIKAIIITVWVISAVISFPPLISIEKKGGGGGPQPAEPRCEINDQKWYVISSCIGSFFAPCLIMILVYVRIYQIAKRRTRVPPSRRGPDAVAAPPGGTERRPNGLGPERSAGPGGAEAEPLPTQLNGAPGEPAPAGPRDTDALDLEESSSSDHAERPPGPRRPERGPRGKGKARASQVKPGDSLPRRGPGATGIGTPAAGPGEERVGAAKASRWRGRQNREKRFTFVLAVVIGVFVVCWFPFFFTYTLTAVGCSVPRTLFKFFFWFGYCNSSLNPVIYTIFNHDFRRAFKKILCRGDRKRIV

[7] = molecular target: T6, Muscarinic acetylcholine receptor M2 (Homo sapiens, UniProt P08172); assay type: functional, cell-based
T6 sequence (P08172 whole entry): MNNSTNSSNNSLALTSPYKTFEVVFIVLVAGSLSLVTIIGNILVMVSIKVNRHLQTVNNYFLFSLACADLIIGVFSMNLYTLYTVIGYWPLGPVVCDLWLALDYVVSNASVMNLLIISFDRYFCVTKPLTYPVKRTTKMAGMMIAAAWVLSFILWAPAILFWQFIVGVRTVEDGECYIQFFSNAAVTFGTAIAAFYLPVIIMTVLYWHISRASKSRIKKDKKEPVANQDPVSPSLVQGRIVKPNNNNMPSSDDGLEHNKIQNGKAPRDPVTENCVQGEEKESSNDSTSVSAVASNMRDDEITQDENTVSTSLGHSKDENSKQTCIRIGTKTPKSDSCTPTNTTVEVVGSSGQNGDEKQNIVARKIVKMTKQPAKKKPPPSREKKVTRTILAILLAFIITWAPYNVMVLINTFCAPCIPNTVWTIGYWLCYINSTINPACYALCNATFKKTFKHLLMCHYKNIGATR
Also: assay procedure not described here.

| Compound | AC50 [1] [µM] | AC50 (B2 bradykinin receptor) [µM] | AC50 [2] [µM] | AC50 (D(1A) dopamine receptor) [µM] | AC50 [3] [µM] | AC50 [4] [µM] | AC50 [5] [µM] | AC50 [6] [µM] | AC50 [7] [µM] |
| --- | --- | --- | --- | --- | --- | --- | --- | --- | --- |
| CN1C(=O)C(O)N=C(c2ccccc2Cl)c2cc(Cl)ccc21 (stereo not drawn) [LORMETAZEPAM] | > 30 | > 30 | > 30 | > 30 | > 30 | > 30 | > 30 |  |  |
| CC(C)(C)C(=O)Oc1ccc(S(=O)(=O)Nc2ccccc2C(=O)NCC(=O)O)cc1 | > 30 | > 30 | > 30 | > 30 | > 30 | > 30 |  | > 30 | > 30 |
| Cc1cccc(C(C)c2cnc[nH]2)c1C (stereo not drawn) [MEDETOMIDINE] | 1.3 | > 30 | > 30 | > 30 | > 30 | 17.8 | > 30 |  | > 10 |
| CNC(C)CCC=C(C)C (stereo not drawn) [ISOMETHEPTENE] |  | > 30 | > 30 |  |  | > 30 | > 30 |  |  |
| CC[C@@H]1C(=O)OC[C@@H]1Cc1cncn1C [PILOCARPINE] | > 10 | > 30 | > 30 | > 10 | > 10 | > 30 | > 30 | > 10 |  |
| CC(C)(C)c1cc(C(C)(C)C)c(NC(=O)c2c[nH]c3ccccc3c2=O)cc1O [IVACAFTOR] | > 10 | > 30 | > 30 |  | > 10 | > 30 | > 30 | > 10 |  |
| CC(Oc1c(Cl)cccc1Cl)C1=NCCN1 (stereo not drawn) [LOFEXIDINE] | 0.42 | > 30 | > 30 | > 30 | > 30 | 8.86 | > 30 |  | > 30 |
| Clc1ccc(CCCOCCCN2CCCCC2)cc1 [PITOLISANT] | 6 | > 30 | > 30 | > 30 | > 30 | 1.7 |  |  | 15 |
| CC(=O)O[C@H]1CC[C@@]2(C)C(=CC[C@@H]3[C@@H]2CC[C@]2(C)C(c4cccnc4)=CC[C@@H]32)C1 [ABIRATERONE ACETATE] | > 30 |  | > 30 | > 30 | > 30 | > 30 | > 30 | > 30 | > 30 |
| Cc1ccc(-n2nccn2)c(C(=O)N2CCN(c3nc4cc(Cl)ccc4o3)CC[C@H]2C)c1 [SUVOREXANT] | > 30 | > 30 | > 30 | > 30 | > 30 | 22 |  | > 30 | > 30 |
